Measurements taken from US20130011493A1, “PLANT DISEASE CONTROLLING COMPOSITION AND METHOD FOR CONTROLLING PLANT DISEASE” (SUMITOMO CHEMICAL COMPANY, LIMITED, priority 2010, published 2013).

System: gray mold fungus (Botrytis cinerea)
Assay: cucumber leaf disk preventive test against gray mold fungus
Type: in vivo
Details: 15° C., four days
Protocol: To a SUS beaker are added 30 parts of the present compound (racemate), 5 parts of Soprophor FLK (polyoxyethylene tristyrylphenyl ether phosphate, produced by Rhodia Nicca Ltd.), 65 parts of ion-exchange water and 150 parts of glass beads (1.0 mm diameter). The mixture is subjected to grinding at a velocity of 1000 rpm with cooling to 10° C., and thereafter the glass beads are separated, so as to obtain a flowable formulation comprising the present compound (racemate).
True leaf of cucumber is punched out with cork borer to 13 mm in diameter to prepare a leaf disk. In 24 well microwell plate that is dispensed with 1 ml 0.8% water agar, the leaf disk is placed such that the upper side of the leaf is in an upward direction. […]
After confirming that the testing medical solution is dried, conidium of gray mold fungus (Botrytis cinerea) is suspended into potato dextrose broth (DIFCO) in a density of about 10^5 conidium/mL and is then subjected to a spray inoculation. After leaving to stand the leaf disk in a growth chamber set up at 15° C. for four days, an onset area on the leaf is measured and then calculated an onset area rate (hereinafter, referred to as an onset area rate of treated group). […]
A preventive value is calculated from the above onset area rate of treated group and the onset area rate of non-treated group by the following equation: […]

## copper hydrochloride
Copper hydrochloride alone 0.5 ppm
  preventive value (%): 10%
Copper hydrochloride alone 5.0 ppm
  preventive value (%): 15%
